Test results published in US8278075B2, “L-cysteine-producing bacterium and a method for producing L-cysteine” (Ajinomoto Co., Inc., priority 2008, dated 2012).

Assays:
wild-type strains = assay: Growth on LB agar media containing cysteine (Keio collection screening); format: cell-based, E. coli BW25113; conditions: overnight at 37° C.
Protocol: The 3,985 clones of the Keio collection were cultured at 37° C. for 15 hours in 0.5 ml of LB liquid medium. This culture medium was stamped on LB agar media containing cysteine at different concentrations (0, 15, 20, 25 mM), and culture was performed overnight at 37° C. Clones that were sensitive to cysteine at a concentration not higher than the growth inhibition concentration of cysteine for wild-type strains (20 mM) were visually selected. […] A strain which is deficient in a part of or the entire tolC gene was obtained as a clone showing particularly strong and distinctive cysteine sensitivity among the above candidates. TolC is an example of a protein called a porin, which localizes in the outer membrane and forms a channel for substance transportation via the outer membrane. Although the presence of many other porins was known for E. coli, TolC was the only porin selected by this screening, among the several candidates considered showing strong cysteine sensitivity.

[1] = system: tolC-deficient JW5503 strain (BW25113ΔtolC); assay: Cross streak method, growth inhibition (antibacterial) width; format: cell-based, Escherichia coli; conditions: L agar, overnight at 30° C.
Protocol: (§1) Influence of a tolC gene deficiency on N-acetylserine (NAS) and O-acetylserine (OAS) sensitivity was investigated in a strain which is deficient in a part of or the entire tolC gene by the cross streak method. In order to compare growth inhibition by NAS (2 M), OAS (2 M), L-cysteine (2 M) and L-serine (1 M), the tolC-deficient JW5503 strain, and the wild-type BW25113 strain used as a control, were cultured overnight in the L liquid medium, and each culture medium was streaked on the L agar medium with a platinum loop. A strip-shaped filter paper onto which each of the aforementioned reagents was dropped, was placed on each of the strains in a direction perpendicular to the streaking direction, and the strains were cultured overnight at 30° C. After the culture, lengths of the filter paper on which growth of the bacteria was inhibited (antibacterial widths) were measured, and the antibacterial activities of the regents on both the strains were compared.

wild-type BW25113 strain = assay: as above; format: cell-based, Escherichia coli; conditions: L agar, overnight at 30° C.
Protocol: as §1

[2] = system: tolC gene-deficient strain JW5503/pCA24; assay: Growth test of serially diluted cell suspensions spotted on L agar medium containing cysteine; format: cell-based, Escherichia coli; conditions: L agar with 10, 15, 20 mM cysteine, 37° C. overnight; FIG. 1
Excerpt: Since a strain which is deficient in a part of or the entire tolC gene was obtained by the screening of the Keio Collection, growth of the gene-deficient strain was observed on the agar medium containing cysteine of different concentrations in order to analyze the sensitivity of that strain to cysteine in more detail. The strain which is deficient in a part of or the entire tolC gene used here was the JW5503 strain (Keio collection), and the parent strain thereof was the BW25113 strain (Andreas Haldimann, A. and Wanner, B. L., J. Bacteriol., 2001 November; 183 (21):6384-6393). The plasmid carrying the tolC gene for a complementation experiment was pTolC (ASKA clone, Kitagawa, M, et al., 2005; DNA Res., 12:291-299), and the vector used as the base thereof was pCA24 (vector for ASKA clone, Kitagawa, M, et al., 2005, DNA Res., 12:291-299).
The bacteria containing each of the plasmids were each inoculated into 5 ml of L medium (10 g/L of Bacto trypton, 5 g/L of Bacto yeast extract, 5 g/L of NaCl), and cultured overnight at 37° C. […]

[3] = reagent 2 M on filter paper strip
[4] = reagent 1 M on filter paper strip

Compound	growth inhibition concentration of cysteine for wild-type strains (wild-type strains)	Growth inhibition width [1, 3]	Growth inhibition width (wild-type BW25113 strain; [3])	cysteine sensitivity of growth compared with the control strain BW25113/pCA24 [2]	Growth inhibition width [1, 4]	Growth inhibition width (wild-type BW25113 strain; [4])
N[C@@H](CS)C(=O)O [L-Cysteine]	20 mM	5 mm	<1 mm	marked cysteine sensitivity		
N[C@@H](CO)C(=O)O [L-Serine]					0 mm	0 mm
CC(=O)N[C@@H](CO)C(=O)O [N-Acetylserine]		10 mm	<2 mm			
CC(=O)OC[C@H](N)C(=O)O [O-Acetylserine]		4 mm	<1 mm			
